Converted amounts (≈) assume the structure as drawn. Like-named read-outs stand apart in the source and are kept apart here.
Key:
Format in all cases: cell-based
Staph. aureus = assay: Agar dilution MIC, Staph. aureus
From the text: (§1) The following Tables present typical minimum inhibitory concentrations (MIC's) in μg/ml for the compounds when evaluated against the indicated microorganisms.

Staph. epi = assay: Agar dilution MIC, Staph. epi
From the text: as §1

H. influ. = assay: Agar dilution MIC, H. influenza
From the text: as §1

Strep. A = assay: Agar dilution MIC, Strep. A; details: Table I, strain C203
From the text: (§2) A typical and preferred compound provided by this invention is 7-(2-naphthylglycylamido)-3-methyl-3-cephem-4-carboxylic acid, the compound of Example 3. The antibacterial activity of this compound and several others of the invention has been determined in standard in vitro agar dilution assays against a variety of gram positive microorganisms. The following Tables present typical minimum inhibitory concentrations (MIC's) in μg/ml for the compounds when evaluated against the indicated microorganisms. MIC's for several known compounds are also presented for comparison.

Strep. PN = assay: Agar dilution MIC, Strep. PN; details: Table I, strain PARK
From the text: as §1

Klebsiella = assay: Agar dilution MIC, Klebsiella; details: Table I, strain X26
From the text: as §2

[1] = Staphylococcus aureus, Table II, strain S224, read-out: MIC
[2] = Staphylococcus aureus, Table II, strain S225, read-out: MIC
[3] = Staphylococcus aureus, Table II, strain S226, read-out: MIC
[4] = Staphylococcus aureus, Table II, strain S227, read-out: MIC
[5] = Staphylococcus aureus, Table II, strain S228, read-out: MIC
[6] = Staphylococcus aureus, Table II, strain S229, read-out: MIC
[7] = Staphylococcus aureus, Table II, strain S230, read-out: MIC
[8] = Staphylococcus aureus, Table II, strain S231, read-out: MIC
[9] = Staphylococcus aureus, Table II, strain S234, read-out: MIC
[10] = Staphylococcus aureus, Table II, strain S237, read-out: MIC
[11] = Staphylococcus aureus, Table II, strain S238, read-out: MIC
[12] = Staphylococcus aureus, Table II, strain S239, read-out: MIC
[13] = Table II expanded spectrum, strain EPI1, read-out: MIC
[14] = Table II, strain 219, read-out: MIC
[15] = Table II, strain 269, read-out: MIC
[16] = Table II, strain 270, read-out: MIC
[17] = Table II, strain 285, read-out: MIC
[18] = Table II, strain 286, read-out: MIC
[19] = Table II, strain 1930, read-out: MIC
[20] = Table II, strain C.L., read-out: MIC
[21] = Table II, strain HESS, read-out: MIC
[22] = Table II, strain M366, read-out: MIC
[23] = Table II, strain R465, read-out: MIC
[24] = Table II, strain STEL, read-out: MIC
[25] = Staphylococcus aureus, Table I, strain V41, read-out: MIC
[26] = Staphylococcus aureus, Table I, strain X1.1, read-out: MIC
[27] = Staphylococcus aureus, Table I, strain X400, read-out: MIC
[28] = Table I, strain 222, read-out: MIC
[29] = Table I, strain EPI1, read-out: MIC
[30] = Table I, strain BRUN, read-out: MIC

SMILES	MIC (Staph. aureus; [1])	MIC (Staph. aureus; [2])	MIC (Staph. aureus; [3])	MIC (Staph. aureus; [4])	MIC (Staph. aureus; [5])	MIC (Staph. aureus; [6])	MIC (Staph. aureus; [7])	MIC (Staph. aureus; [8])	MIC (Staph. aureus; [9])	MIC (Staph. aureus; [10])	MIC (Staph. aureus; [11])	MIC (Staph. aureus; [12])	MIC (Staph. epi; [13])	MIC (Staph. epi; [14])	MIC (Staph. epi; [15])	MIC (Staph. epi; [16])	MIC (Staph. epi; [17])	MIC (Staph. epi; [18])	MIC (H. influ.; [22])	MIC (H. influ.; [23])	also measured
COCC1=C(C(=O)O)N2C(=O)C(NC(=O)[C@H](N)c3ccc4ccccc4c3)C2SC1 (some centres unmarked) [Example 8, 7-(2-Naphthylglycylamido)-3-methoxymethyl-3-cephem-4-carboxylic acid]	0.5 µg/mL (≈ 1.17 µM)	0.5 µg/mL (≈ 1.17 µM)	1 µg/mL (≈ 2.34 µM)	0.5 µg/mL (≈ 1.17 µM)	0.5 µg/mL (≈ 1.17 µM)	1 µg/mL (≈ 2.34 µM)	0.5 µg/mL (≈ 1.17 µM)	0.5 µg/mL (≈ 1.17 µM)	1 µg/mL (≈ 2.34 µM)	0.5 µg/mL (≈ 1.17 µM)	1 µg/mL (≈ 2.34 µM)	1 µg/mL (≈ 2.34 µM)	4 µg/mL (≈ 9.36 µM)	0.5 µg/mL (≈ 1.17 µM)	2 µg/mL (≈ 4.68 µM)	2 µg/mL (≈ 4.68 µM)	1 µg/mL (≈ 2.34 µM)	0.5 µg/mL (≈ 1.17 µM)	> 64 µg/mL	16 µg/mL (≈ 37.4 µM)	MIC (H. influ.; Table II, strain 76, read-out: MIC): 8 µg/mL (≈ 18.7 µM); MIC (H. influ.; Table II, strain 105, read-out: MIC): 8 µg/mL (≈ 18.7 µM); MIC (H. influ.; Table II, strain 158, read-out: MIC): 8 µg/mL (≈ 18.7 µM); MIC (H. influ.; Table II, strain 164, read-out: MIC): 8 µg/mL (≈ 18.7 µM); MIC (H. influ.; Table II, strain 169, read-out: MIC): 8 µg/mL (≈ 18.7 µM); MIC (H. influ.; Table II, strain 171, read-out: MIC): 8 µg/mL (≈ 18.7 µM); MIC (H. influ.; Table II, strain 312, read-out: MIC): 8 µg/mL (≈ 18.7 µM); MIC (H. influ.; [19]): 16 µg/mL (≈ 37.4 µM); MIC (H. influ.; Table II, strain 4842, read-out: MIC): 8 µg/mL (≈ 18.7 µM); MIC (H. influ.; [20]): 8 µg/mL (≈ 18.7 µM); MIC (H. influ.; [21]): 8 µg/mL (≈ 18.7 µM); MIC (H. influ.; [24]): > 64 µg/mL
CC1=C(C(=O)O)N2C(=O)C(NC(=O)[C@H](N)c3ccc4cc(O)ccc4c3)C2SC1 (stereo partly drawn) [Example 11, D-7-(6-hydroxy-2-naphthylglycyl-amido)-3-methyl-3-cephem-4-carboxylic acid]	0.5 µg/mL (≈ 1.21 µM)	0.5 µg/mL (≈ 1.21 µM)	1 µg/mL (≈ 2.42 µM)	0.5 µg/mL (≈ 1.21 µM)	0.5 µg/mL (≈ 1.21 µM)	1 µg/mL (≈ 2.42 µM)	0.5 µg/mL (≈ 1.21 µM)	0.5 µg/mL (≈ 1.21 µM)	1 µg/mL (≈ 2.42 µM)	1 µg/mL (≈ 2.42 µM)	1 µg/mL (≈ 2.42 µM)	1 µg/mL (≈ 2.42 µM)	4 µg/mL (≈ 9.67 µM)	0.5 µg/mL (≈ 1.21 µM)	2 µg/mL (≈ 4.84 µM)	4 µg/mL (≈ 9.67 µM)	2 µg/mL (≈ 4.84 µM)	1 µg/mL (≈ 2.42 µM)	> 64 µg/mL	16 µg/mL (≈ 38.7 µM)	MIC (Staph. aureus; [25]): 8 µg/mL (≈ 19.3 µM); MIC (Staph. aureus; [26]): 0.5 µg/mL (≈ 1.21 µM); MIC (Staph. aureus; [27]): 32 µg/mL (≈ 77.4 µM); MIC (Staph. epi; [28]): 1 µg/mL (≈ 2.42 µM); MIC (Staph. epi; [29]): 4 µg/mL (≈ 9.67 µM); MIC (Strep. A; read-out: MIC): 0.125 µg/mL (≈ 0.302 µM); MIC (Strep. PN; read-out: MIC): 0.25 µg/mL (≈ 0.605 µM); MIC (H. influ.; [30]): 8 µg/mL (≈ 19.3 µM); MIC (H. influ.; [24]): > 64 µg/mL; MIC (Klebsiella; Klebsiella, read-out: MIC): 4 µg/mL (≈ 9.67 µM)
CC1(C)S[C@@H]2[C@H](NC(=O)[C@H](N)c3ccccc3)C(=O)N2[C@H]1C(=O)O [Ampicillin, reference compound]																					MIC (Staph. epi; [29]): 8 µg/mL (≈ 22.9 µM); MIC (Strep. A; read-out: MIC): 0.03 µg/mL (≈ 0.0859 µM); MIC (Strep. PN; read-out: MIC): 0.03 µg/mL (≈ 0.0859 µM); MIC (H. influ.; Table I, strain 251, read-out: MIC): 16 µg/mL (≈ 45.8 µM); MIC (H. influ.; [30]): 0.5 µg/mL (≈ 1.43 µM); MIC (Klebsiella; Klebsiella, read-out: MIC): 16 µg/mL (≈ 45.8 µM)
COc1ccc2cc([C@@H](N)C(=O)NC3C(=O)N4C(C(=O)O)=C(C)CSC34)ccc2c1 (stereo partly drawn) [Example 10, D-7-(6-Methoxy-2-naphthyl)glycylamido-3-methyl-3-cephem-4-carboxylic acid]	0.5 µg/mL (≈ 1.17 µM)	0.5 µg/mL (≈ 1.17 µM)	1 µg/mL (≈ 2.34 µM)	1 µg/mL (≈ 2.34 µM)	0.5 µg/mL (≈ 1.17 µM)	1 µg/mL (≈ 2.34 µM)	0.5 µg/mL (≈ 1.17 µM)	0.25 µg/mL (≈ 0.585 µM)	1 µg/mL (≈ 2.34 µM)	1 µg/mL (≈ 2.34 µM)	1 µg/mL (≈ 2.34 µM)	1 µg/mL (≈ 2.34 µM)	4 µg/mL (≈ 9.36 µM)	5 µg/mL (≈ 11.7 µM)	2 µg/mL (≈ 4.68 µM)	4 µg/mL (≈ 9.36 µM)	2 µg/mL (≈ 4.68 µM)	0.5 µg/mL (≈ 1.17 µM)	16 µg/mL (≈ 37.4 µM)	16 µg/mL (≈ 37.4 µM)	MIC (Staph. aureus; Staphylococcus aureus, Table I, strain S13E): 16 µg/mL (≈ 37.4 µM); MIC (Staph. aureus; [25]): 16 µg/mL (≈ 37.4 µM); MIC (Staph. aureus; [26]): 0.25 µg/mL (≈ 0.585 µM); MIC (Staph. aureus; [27]): 64 µg/mL (≈ 150 µM); MIC (Staph. epi; [28]): 1 µg/mL (≈ 2.34 µM); MIC (Staph. epi; [29]): 4 µg/mL (≈ 9.36 µM); MIC (Strep. A; read-out: MIC): 0.125 µg/mL (≈ 0.292 µM); MIC (Strep. PN; read-out: MIC): 0.125 µg/mL (≈ 0.292 µM); MIC (H. influ.; [30]): 16 µg/mL (≈ 37.4 µM); MIC (H. influ.; [19]): 8 µg/mL (≈ 18.7 µM); MIC (H. influ.; [20]): 8 µg/mL (≈ 18.7 µM); MIC (H. influ.; [21]): 8 µg/mL (≈ 18.7 µM); MIC (H. influ.; [24]): 16 µg/mL (≈ 37.4 µM); MIC (Klebsiella; Klebsiella, read-out: MIC): 4 µg/mL (≈ 9.36 µM)
N[C@@H](C(=O)N[C@@H]1C(=O)N2C(C(=O)O)=C(Cl)CS[C@H]12)c1ccc2ccccc2c1 [Ex. 5A, D-7-(2-naphthylglycylamido)-3-chloro-3-cephem-4-carboxylic acid]																					MIC (Staph. aureus; Table I, strain S13E): 16 µg/mL (≈ 38.3 µM); MIC (Staph. aureus; Table I, strain V41): 16 µg/mL (≈ 38.3 µM); MIC (Staph. epi; Table I, strain EPI1): 2 µg/mL (≈ 4.79 µM); MIC (Strep. A): 0.125 µg/mL (≈ 0.299 µM); MIC (Strep. PN): 0.125 µg/mL (≈ 0.299 µM); MIC (H. influ.; Table I, strain 251): 2 µg/mL (≈ 4.79 µM); MIC (H. influ.; Table I, strain BRUN): 4 µg/mL (≈ 9.57 µM); MIC (Klebsiella): 2 µg/mL (≈ 4.79 µM)

Source: patent publication US4490370A, “Naphthylglycyl cephalosporin derivatives” (priority 1983, dated 1984)
